Results reported in the NIST ThermoML archive (doi:10.1021/acs.jced.9b00846).

Conditions: Liquid, Vibrating tube method

CC(C)C(C)C(C)C [2,3,4-trimethylpentane]
Conditions | mass density [kg/m3]
283.15 K, 130 kPa | 728.3
283.15 K, 4973 kPa | 732.2
283.15 K, 9993 kPa | 736
283.15 K, 14965 kPa | 739.6
283.15 K, 20000 kPa | 743
283.15 K, 25003 kPa | 746.3
283.15 K, 29990 kPa | 749.5
283.15 K, 35009 kPa | 752.5
283.15 K, 39961 kPa | 755.4
283.15 K, 45014 kPa | 758.3
283.15 K, 49986 kPa | 761
283.15 K, 54944 kPa | 763.6
283.15 K, 60030 kPa | 766.3
283.15 K, 65014 kPa | 768.8
288.15 K, 102 kPa | 724.3
288.15 K, 5015 kPa | 728.4
288.15 K, 9991 kPa | 732.3
288.15 K, 14975 kPa | 736
288.15 K, 20038 kPa | 739.6
288.15 K, 25021 kPa | 743
288.15 K, 29929 kPa | 746.1
288.15 K, 35037 kPa | 749.3
288.15 K, 40039 kPa | 752.3
288.15 K, 44998 kPa | 755.2
288.15 K, 49927 kPa | 757.9
288.15 K, 54967 kPa | 760.6
288.15 K, 59925 kPa | 763.2
288.15 K, 65032 kPa | 765.9
293.15 K, 111 kPa | 720.4
293.15 K, 5021 kPa | 724.6
293.15 K, 9998 kPa | 728.6
293.15 K, 14997 kPa | 732.4
293.15 K, 19997 kPa | 736.1
293.15 K, 25022 kPa | 739.6
293.15 K, 29930 kPa | 742.8
293.15 K, 34968 kPa | 746
293.15 K, 39974 kPa | 749.1
293.15 K, 45009 kPa | 752
293.15 K, 49965 kPa | 754.9
293.15 K, 54987 kPa | 757.6
293.15 K, 59945 kPa | 760.3
293.15 K, 65000 kPa | 762.9
298.15 K, 105 kPa | 716.2
298.15 K, 5072 kPa | 720.6
298.15 K, 9964 kPa | 724.7
298.15 K, 15013 kPa | 728.7
298.15 K, 20054 kPa | 732.5
298.15 K, 25008 kPa | 736
298.15 K, 29968 kPa | 739.4
298.15 K, 34937 kPa | 742.6
298.15 K, 40018 kPa | 745.8
298.15 K, 45064 kPa | 748.8
298.15 K, 50010 kPa | 751.7
298.15 K, 55015 kPa | 754.5
298.15 K, 59955 kPa | 757.2
298.15 K, 65024 kPa | 759.9
303.15 K, 100 kPa | 712
303.15 K, 4934 kPa | 716.5
303.15 K, 10038 kPa | 720.9
303.15 K, 14973 kPa | 724.9
303.15 K, 19957 kPa | 728.7
303.15 K, 25002 kPa | 732.4
303.15 K, 29980 kPa | 735.9
303.15 K, 34972 kPa | 739.3
303.15 K, 39972 kPa | 742.5
303.15 K, 44990 kPa | 745.6
303.15 K, 49984 kPa | 748.5
303.15 K, 54948 kPa | 751.4
303.15 K, 59951 kPa | 754.2
303.15 K, 65040 kPa | 756.9
308.15 K, 92 kPa | 707.8
308.15 K, 5051 kPa | 712.5
308.15 K, 9961 kPa | 716.8
308.15 K, 14959 kPa | 721
308.15 K, 20027 kPa | 725
308.15 K, 25025 kPa | 728.8
308.15 K, 29996 kPa | 732.4
308.15 K, 34959 kPa | 735.7
308.15 K, 40017 kPa | 739.1
308.15 K, 45023 kPa | 742.2
308.15 K, 49965 kPa | 745.2
308.15 K, 54977 kPa | 748.2
308.15 K, 60020 kPa | 751
308.15 K, 64995 kPa | 753.8
313.15 K, 99 kPa | 703.6
313.15 K, 4997 kPa | 708.5
313.15 K, 9998 kPa | 713.1
313.15 K, 15010 kPa | 717.4
313.15 K, 19994 kPa | 721.4
313.15 K, 25007 kPa | 725.3
313.15 K, 29995 kPa | 729
313.15 K, 35008 kPa | 732.4
313.15 K, 39993 kPa | 735.8
313.15 K, 45005 kPa | 739
313.15 K, 49990 kPa | 742.1
313.15 K, 55003 kPa | 745.1
313.15 K, 59996 kPa | 748
313.15 K, 64993 kPa | 750.8
318.15 K, 104 kPa | 699.5
318.15 K, 4961 kPa | 704.4
318.15 K, 10003 kPa | 709.2
318.15 K, 15026 kPa | 713.7
318.15 K, 19937 kPa | 717.8
318.15 K, 25012 kPa | 721.8
318.15 K, 29990 kPa | 725.5
318.15 K, 34991 kPa | 729.1
318.15 K, 39976 kPa | 732.5
318.15 K, 45028 kPa | 735.8
318.15 K, 49973 kPa | 739
318.15 K, 54916 kPa | 742
318.15 K, 59988 kPa | 744.9
318.15 K, 65015 kPa | 747.8
323.15 K, 111 kPa | 695.4
323.15 K, 5025 kPa | 700.6
323.15 K, 10013 kPa | 705.5
323.15 K, 14973 kPa | 710
323.15 K, 20028 kPa | 714.4
323.15 K, 25014 kPa | 718.4
323.15 K, 29976 kPa | 722.2
323.15 K, 34994 kPa | 725.9
323.15 K, 39992 kPa | 729.4
323.15 K, 45046 kPa | 732.8
323.15 K, 49980 kPa | 736
323.15 K, 54968 kPa | 739.1
323.15 K, 59988 kPa | 742.1
323.15 K, 65068 kPa | 745
328.15 K, 94 kPa | 691.3
328.15 K, 4971 kPa | 696.6
328.15 K, 9997 kPa | 701.7
328.15 K, 14959 kPa | 706.4
328.15 K, 19969 kPa | 710.9
328.15 K, 25055 kPa | 715.1
328.15 K, 29960 kPa | 719
328.15 K, 34966 kPa | 722.7
328.15 K, 40013 kPa | 726.3
328.15 K, 45034 kPa | 729.8
328.15 K, 50015 kPa | 733.1
328.15 K, 54973 kPa | 736.2
328.15 K, 59955 kPa | 739.2
328.15 K, 64992 kPa | 742.2
333.15 K, 95 kPa | 687.1
333.15 K, 4934 kPa | 692.6
333.15 K, 9973 kPa | 697.9
333.15 K, 14973 kPa | 702.8
333.15 K, 19993 kPa | 707.4
333.15 K, 24959 kPa | 711.6
333.15 K, 29952 kPa | 715.7
333.15 K, 34974 kPa | 719.5
333.15 K, 39961 kPa | 723.2
333.15 K, 44999 kPa | 726.7
333.15 K, 49992 kPa | 730.1
333.15 K, 54798 kPa | 733.2
333.15 K, 59952 kPa | 736.4
333.15 K, 65050 kPa | 739.5
338.15 K, 115 kPa | 683.1
338.15 K, 4978 kPa | 688.9
338.15 K, 9970 kPa | 694.3
338.15 K, 14966 kPa | 699.3
338.15 K, 19960 kPa | 703.9
338.15 K, 24994 kPa | 708.4
338.15 K, 30030 kPa | 712.5
338.15 K, 34973 kPa | 716.3
338.15 K, 39979 kPa | 720
338.15 K, 45024 kPa | 723.6
338.15 K, 50019 kPa | 727.1
338.15 K, 54928 kPa | 730.3
338.15 K, 59953 kPa | 733.5
338.15 K, 64998 kPa | 736.6
343.15 K, 109 kPa | 678.8
343.15 K, 5084 kPa | 684.9
343.15 K, 9963 kPa | 690.4
343.15 K, 15039 kPa | 695.6
343.15 K, 20010 kPa | 700.4
343.15 K, 24998 kPa | 704.9
343.15 K, 30054 kPa | 709.2
343.15 K, 35048 kPa | 713.2
343.15 K, 40023 kPa | 717
343.15 K, 44967 kPa | 720.6
343.15 K, 50023 kPa | 724.2
343.15 K, 54967 kPa | 727.5
343.15 K, 59995 kPa | 730.7
343.15 K, 64954 kPa | 733.8
348.15 K, 112 kPa | 674.5
348.15 K, 5011 kPa | 680.8
348.15 K, 10066 kPa | 686.6
348.15 K, 14992 kPa | 691.9
348.15 K, 19955 kPa | 696.8
348.15 K, 25042 kPa | 701.5
348.15 K, 29986 kPa | 705.8
348.15 K, 35004 kPa | 709.9
348.15 K, 40002 kPa | 713.9
348.15 K, 44996 kPa | 717.6
348.15 K, 49994 kPa | 721.1
348.15 K, 54995 kPa | 724.6
348.15 K, 60005 kPa | 727.9
348.15 K, 65009 kPa | 731
353.15 K, 109 kPa | 670.1
353.15 K, 4963 kPa | 676.6
353.15 K, 9919 kPa | 682.5
353.15 K, 15039 kPa | 688.2
353.15 K, 19995 kPa | 693.2
353.15 K, 24983 kPa | 698
353.15 K, 29960 kPa | 702.4
353.15 K, 34985 kPa | 706.7
353.15 K, 39983 kPa | 710.7
353.15 K, 45037 kPa | 714.5
353.15 K, 49989 kPa | 718.1
353.15 K, 54953 kPa | 721.6
353.15 K, 59909 kPa | 724.9
353.15 K, 65052 kPa | 728.2
358.15 K, 118 kPa | 665.9
358.15 K, 4955 kPa | 672.5
358.15 K, 9916 kPa | 678.7
358.15 K, 15035 kPa | 684.5
358.15 K, 19946 kPa | 689.6
358.15 K, 25037 kPa | 694.6
358.15 K, 29963 kPa | 699.2
358.15 K, 35027 kPa | 703.4
358.15 K, 40010 kPa | 707.5
358.15 K, 44955 kPa | 711.4
358.15 K, 50023 kPa | 715.1
358.15 K, 54980 kPa | 718.7
358.15 K, 59952 kPa | 722
358.15 K, 65021 kPa | 725.4
363.15 K, 101 kPa | 661.3
363.15 K, 4941 kPa | 668.3
363.15 K, 9928 kPa | 674.7
363.15 K, 15005 kPa | 680.6
363.15 K, 19958 kPa | 686
363.15 K, 24923 kPa | 691
363.15 K, 29983 kPa | 695.8
363.15 K, 34922 kPa | 700.1
363.15 K, 39992 kPa | 704.4
363.15 K, 45038 kPa | 708.4
363.15 K, 49985 kPa | 712.2
363.15 K, 54981 kPa | 715.8
363.15 K, 59985 kPa | 719.3
363.15 K, 65038 kPa | 722.6
